Results on one compound are retold here after patent US20150087037A1, “FERMENTATION PROCESS” (LanzaTech New Zealand Limited, priority 2013, published 2015).

For assay [1], the system named is Ketol-acid reductoisomerase IlvC. The conditions noted are these: reference in the literature; cited from earlier work.
Assay [2] relates to C. autoethanogenum DSM23693. Nature of the assay: Addition of other known inhibitor to a fermentation optimized for 2,3-Butanediol production. The conditions noted are these: single addition, 15 mM, stable reactor, day 13.2, FIG. 13. It is filed as cell-based, Clostridium autoethanogenum. How it is done: Fermentations with C. autoethanogenum DSM23693 were carried out in 1.5 L bioreactors at 37° C. The media was prepared according to Table 1. To achieve anaerobicity the reactor vessel was sparged with nitrogen. Prior to inoculation, the gas was switched to either steel mill gas containing H2 (3%), N2 (30%), CO (47%) and CO2 (20%) or pure gases (50% CO, 18-40% CO2, with the balance N2). The gas flow was initially set at 67 ml/min/L, increasing to 200 ml/min during mid-exponential phase, while the agitation was increased from 200 rpm to 800. Na2S was dosed into the bioreactor at 0.25 ml/hr. Once the OD600 reached 1.5, the bioreactor was switched to a continuous mode at a dilution rate of 2.0-1.6 d-l and a bacterial dilution rate of 0.9-0.6 d-l. During continuous mode gas and agitation were adjusted to 900-950 rpm and 800-900 ml/min. Na2S was increased to 1.0 ml/hr.
Liquid culture samples were taken at differing intervals over the duration of the fermentation. These samples were used to establish the optical density at 600 nm (spectrophotometer) and the level of substrates and products (high performance liquid chromatography—HPLC). HPLC was routinely used to quantify the level of acetate, ethanol and 2,3-butanediol. The input and output gas compositions were analysed using a gas chromatographer (GC), allowing measurement of CO and H2 consumption and CO2 production by the culture. […]

On to `CCC(C)(O)C(=O)O` (stereo not drawn) [2-hydroxy-2-methylbutyric acid], for which the “inhibition of ilvC” value in assay [1] is listed as “known inhibitor”. Also, in assay [2], the “ethanol:2,3-BDO ratio” value was “drop” and the “production of 2,3-Butanediol” value is “increase”.
